Experimental data from patent US10799503B2, “Methods for the treatment of cancer” (IGNYTA, INC., priority 2016, dated 2020).

Legend:
[1] = Phase I and Phase Ib clinical studies (Example 4): treatment-related adverse events and disposition; format: in vivo, human
Description: Phase I and Phase Ib clinical studies were performed in which 92 total subjects were enrolled, 91 of which were treated, and of which 35 in the Phase Ib portion were determined to be molecularly evaluable and were treated.
Table 4 provides a summary of the most common, treatment-related adverse events (AEs) in all patients that were treated (n=91), expressed as a percentage of the 91 patients.

[2] = Phase I and Phase Ib clinical studies (Example 5, data cut-off Aug. 1, 2017): treatment-related adverse events and disposition; format: in vivo, human
Description: The most common (>10%) treatment related AEs […].

Q: For COc1cc2ncnc(Oc3cccc(NC(=O)Nc4cc(C(C)(C)C(F)(F)F)on4)c3)c2cc1OC [N-[3-[(6,7-dimethoxy-4-quinazolinyl)oxy]phenyl]-N′-[5-(2,2,2-trifluoro-1,1-dimethylethyl)-3-isoxazolyl]-urea], which “Discontinued, primary reason Death, number of subjects” value ([1]; 92 enrolled in Phase 1/1b) is on record?
A: 4 n

Q: What about the “Discontinued, primary reason Death, percent of subjects” value ([1]; 92 enrolled in Phase 1/1b) of the same compound?
A: (4) %

Q: What about the “ALT increase Any Grade, number of patients” value ([1]; human, in vivo) of the same compound?
A: 6

Q: And the “ALT increase Any Grade, percentage of patients” value ([1]; human, in vivo)?
A: (7) %

Q: And the “ALT increase Grade ≤ 2, number of patients” value ([1]; human, in vivo)?
A: 1

Q: And the “ALT increase Grade ≤ 2, percentage of patients” value ([1]; human, in vivo)?
A: (1) %

Q: What about the “ALT increase Grade ≥ 3, number of patients” value ([1]; human, in vivo) of the same compound?
A: 5

Q: And the “ALT increase Grade ≥ 3, percentage of patients” value ([1]; human, in vivo)?
A: (6) %

Q: What about the “AST increase Any Grade, number of patients” value ([1]; human, in vivo) of the same compound?
A: 6

Q: What about the “AST increase Any Grade, percentage of patients” value ([1]; human, in vivo) of the same compound?
A: (7) %

Q: What about the “AST increase Grade ≤ 2, percentage of patients” value ([1]; human, in vivo) of the same compound?
A: (3) %

Q: And the “AST increase Grade ≥ 3, number of patients” value ([1]; human, in vivo)?
A: 3

Q: And the “AST increase Grade ≥ 3, percentage of patients” value ([1]; human, in vivo)?
A: (3) %

Q: And the “Anemia Any Grade, number of patients” value ([1]; human, in vivo)?
A: 6

Q: What about the “Anemia Any Grade, percentage of patients” value ([1]; human, in vivo) of the same compound?
A: (7) %

Q: What about the “Anemia Grade ≤ 2, number of patients” value ([1]; human, in vivo) of the same compound?
A: 5

Q: And the “Anemia Grade ≤ 2, percentage of patients” value ([1]; human, in vivo)?
A: (6) %

Q: What about the “Anemia Grade ≥ 3, number of patients” value ([1]; human, in vivo) of the same compound?
A: 1

Q: What about the “Anemia Grade ≥ 3, percentage of patients” value ([1]; human, in vivo) of the same compound?
A: (1) %

Q: And the “Decreased Appetite Any Grade, number of patients” value ([1]; human, in vivo)?
A: 9

Q: What about the “Decreased Appetite Any Grade, percentage of patients” value ([1]; human, in vivo) of the same compound?
A: (10) %

Q: What about the “Decreased Appetite Grade ≤ 2, number of patients” value ([1]; human, in vivo) of the same compound?
A: 9

Q: What about the “Decreased Appetite Grade ≤ 2, percentage of patients” value ([1]; human, in vivo) of the same compound?
A: (10) %

Q: And the “Decreased Appetite Grade ≥ 3, number of patients” value ([1]; human, in vivo)?
A: 0

Q: And the “Diarrhea Any Grade, number of patients” value ([1]; human, in vivo)?
A: 18

Q: What about the “Diarrhea Any Grade, percentage of patients” value ([1]; human, in vivo) of the same compound?
A: (20) %

Q: And the “Diarrhea Grade ≤ 2, number of patients” value ([1]; human, in vivo)?
A: 14

Q: And the “Diarrhea Grade ≤ 2, percentage of patients” value ([1]; human, in vivo)?
A: (15) %

Q: What about the “Diarrhea Grade ≥ 3, number of patients” value ([1]; human, in vivo) of the same compound?
A: 4

Q: And the “Diarrhea Grade ≥ 3, percentage of patients” value ([1]; human, in vivo)?
A: (4) %

Q: What about the “Discontinued, primary reason Adverse Event, number of subjects” value ([1]; human, in vivo) of the same compound?
A: 11 n

Q: What about the “Discontinued, primary reason Adverse Event, percent of subjects” value ([1]; human, in vivo) of the same compound?
A: (12) %

Q: What about the “Dysgeusia Any Grade, number of patients” value ([1]; human, in vivo) of the same compound?
A: 5

Q: What about the “Dysgeusia Any Grade, percentage of patients” value ([1]; human, in vivo) of the same compound?
A: (6) %

Q: And the “Dysgeusia Grade ≤ 2, number of patients” value ([1]; human, in vivo)?
A: 5

Q: And the “Dysgeusia Grade ≤ 2, percentage of patients” value ([1]; human, in vivo)?
A: (6) %

Q: And the “Dysgeusia Grade ≥ 3, number of patients” value ([1]; human, in vivo)?
A: 0

Q: And the “Erythema Any Grade, number of patients” value ([1]; human, in vivo)?
A: 7

Q: And the “Erythema Any Grade, percentage of patients” value ([1]; human, in vivo)?
A: (8) %

Q: What about the “Erythema Grade ≤ 2, number of patients” value ([1]; human, in vivo) of the same compound?
A: 7

Q: And the “Erythema Grade ≤ 2, percentage of patients” value ([1]; human, in vivo)?
A: (8) %

Q: And the “Erythema Grade ≥ 3, number of patients” value ([1]; human, in vivo)?
A: 0

Q: And the “Fatigue Any Grade, number of patients” value ([1]; human, in vivo)?
A: 20

Q: And the “Fatigue Any Grade, percentage of patients” value ([1]; human, in vivo)?
A: (22) %

Q: And the “Fatigue Grade ≤ 2, number of patients” value ([1]; human, in vivo)?
A: 16

Q: And the “Fatigue Grade ≤ 2, percentage of patients” value ([1]; human, in vivo)?
A: (18) %

Q: What about the “Fatigue Grade ≥ 3, number of patients” value ([1]; human, in vivo) of the same compound?
A: 4

Q: And the “Fatigue Grade ≥ 3, percentage of patients” value ([1]; human, in vivo)?
A: (4) %

Q: What about the “Hypokalemia Any Grade, number of patients” value ([1]; human, in vivo) of the same compound?
A: 6

Q: What about the “Hypokalemia Any Grade, percentage of patients” value ([1]; human, in vivo) of the same compound?
A: (7) %

Q: And the “Hypokalemia Grade ≤ 2, number of patients” value ([1]; human, in vivo)?
A: 6

Q: And the “Hypokalemia Grade ≤ 2, percentage of patients” value ([1]; human, in vivo)?
A: (7) %

Q: And the “Hypokalemia Grade ≥ 3, number of patients” value ([1]; human, in vivo)?
A: 0

Q: What about the “Hypophosphatemia Any Grade, number of patients” value ([1]; human, in vivo) of the same compound?
A: 13

Q: And the “Hypophosphatemia Any Grade, percentage of patients” value ([1]; human, in vivo)?
A: (14) %

Q: And the “Hypophosphatemia Grade ≤ 2, number of patients” value ([1]; human, in vivo)?
A: 7

Q: And the “Hypophosphatemia Grade ≤ 2, percentage of patients” value ([1]; human, in vivo)?
A: (8) %

Q: And the “Hypophosphatemia Grade ≥ 3, number of patients” value ([1]; human, in vivo)?
A: 6

Q: What about the “Hypophosphatemia Grade ≥ 3, percentage of patients” value ([1]; human, in vivo) of the same compound?
A: (7) %

Q: What about the “Muscle Spasms Any Grade, number of patients” value ([1]; human, in vivo) of the same compound?
A: 12

Q: And the “Muscle Spasms Any Grade, percentage of patients” value ([1]; human, in vivo)?
A: (13) %

Q: And the “Muscle Spasms Grade ≤ 2, number of patients” value ([1]; human, in vivo)?
A: 12

Q: What about the “Muscle Spasms Grade ≤ 2, percentage of patients” value ([1]; human, in vivo) of the same compound?
A: (13) %

Q: And the “Muscle Spasms Grade ≥ 3, number of patients” value ([1]; human, in vivo)?
A: 0

Q: What about the “Nausea Any Grade, number of patients” value ([1]; human, in vivo) of the same compound?
A: 16

Q: And the “Nausea Any Grade, percentage of patients” value ([1]; human, in vivo)?
A: (18) %

Q: What about the “Nausea Grade ≤ 2, number of patients” value ([1]; human, in vivo) of the same compound?
A: 16

Q: And the “Nausea Grade ≤ 2, percentage of patients” value ([1]; human, in vivo)?
A: (18) %

Q: What about the “Nausea Grade ≥ 3, number of patients” value ([1]; human, in vivo) of the same compound?
A: 0

Q: What about the “Rash* Any Grade, number of patients” value ([1]; human, in vivo) of the same compound?
A: 28

Q: And the “Rash* Any Grade, percentage of patients” value ([1]; human, in vivo)?
A: (31) %

Q: And the “Rash* Grade ≤ 2, number of patients” value ([1]; human, in vivo)?
A: 20

Q: And the “Rash* Grade ≤ 2, percentage of patients” value ([1]; human, in vivo)?
A: (22) %

Q: What about the “Rash* Grade ≥ 3, number of patients” value ([1]; human, in vivo) of the same compound?
A: 8

Q: What about the “Rash* Grade ≥ 3, percentage of patients” value ([1]; human, in vivo) of the same compound?
A: (9) %

Q: What about the “Vomiting Any Grade, number of patients” value ([1]; human, in vivo) of the same compound?
A: 13

Q: What about the “Vomiting Any Grade, percentage of patients” value ([1]; human, in vivo) of the same compound?
A: (14) %

Q: What about the “Vomiting Grade ≤ 2, number of patients” value ([1]; human, in vivo) of the same compound?
A: 13

Q: What about the “Vomiting Grade ≤ 2, percentage of patients” value ([1]; human, in vivo) of the same compound?
A: (14) %

Q: And the “Vomiting Grade ≥ 3, number of patients” value ([1]; human, in vivo)?
A: 0

Q: What about the “Number of patients that discontinued due to death” value (from here on “Number … to death”) ([2]; Phase 1 (N = 55)) of the same compound?
A: 3 n

Q: And the “Number … to death” value ([2]; Phase 1b Other (N = 50))?
A: 1 n

Q: What about the “Number … to death” value ([2]; Phase 1b RET+ (N = 47)) of the same compound?
A: 0 n

Q: What about the “Number … to death” value ([2]; Total Subjects (N = 152)) of the same compound?
A: 4 n

Q: And the “Blood Bilirubin Increased ≤G2” value ([2]; human, in vivo)?
A: 6 (4)

Q: What about the “Blood Bilirubin Increased ≥G3” value ([2]; human, in vivo) of the same compound?
A: 1 (1)

Q: And the “Decreased Appetite ≤G2” value ([2]; human, in vivo)?
A: 17 (11)

Q: What about the “Decreased Appetite ≥G3” value ([2]; human, in vivo) of the same compound?
A: 0 (0)

Q: What about the “Diarrhea ≤G2” value ([2]; human, in vivo) of the same compound?
A: 28 (18)

Q: What about the “Diarrhea ≥G3” value ([2]; human, in vivo) of the same compound?
A: 6 (4)

Q: What about the “Elevated Alanine Aminotransferase ≤G2” value ([2]; human, in vivo) of the same compound?
A: 4 (3)

Q: What about the “Elevated Alanine Aminotransferase ≥G3” value ([2]; human, in vivo) of the same compound?
A: 11 (7)

Q: What about the “Elevated Aspartate Aminotransferase ≤G2” value ([2]; human, in vivo) of the same compound?
A: 9 (6)

Q: What about the “Elevated Aspartate Aminotransferase ≥G3” value ([2]; human, in vivo) of the same compound?
A: 6 (4)

Q: What about the “Fatigue ≤G2” value ([2]; human, in vivo) of the same compound?
A: 27 (18)

Q: And the “Fatigue ≥G3” value ([2]; human, in vivo)?
A: 5 (3)

Q: What about the “Hypophosphatemia ≤G2” value ([2]; human, in vivo) of the same compound?
A: 13 (9)

Q: What about the “Hypophosphatemia ≥G3” value ([2]; human, in vivo) of the same compound?
A: 11 (7)

Q: And the “Muscle Spasms ≤G2” value ([2]; human, in vivo)?
A: 19 (13)

Q: What about the “Muscle Spasms ≥G3” value ([2]; human, in vivo) of the same compound?
A: 0 (0)

Q: And the “Nausea ≤G2” value ([2]; human, in vivo)?
A: 21 (14)

Q: And the “Nausea ≥G3” value ([2]; human, in vivo)?
A: 0 (0)

Q: And the “Rash* ≤G2” value ([2]; human, in vivo)?
A: 37 (24)

Q: What about the “Rash* ≥G3” value ([2]; human, in vivo) of the same compound?
A: 15 (10)

Q: And the “Vomiting ≤G2” value ([2]; human, in vivo)?
A: 15 (10)

Q: What about the “Vomiting ≥G3” value ([2]; human, in vivo) of the same compound?
A: 0 (0)

Q: And the “number of treatment-related serious adverse events (SAEs)” value ([2]; human, in vivo)?
A: 19

Q: And the “patients who experienced treatment-related serious adverse events (SAEs)” value ([2]; human, in vivo)?
A: 9%

Q: And the “resolution of treatment-related serious adverse events” value ([2]; human, in vivo)?
A: all except 1 resolved by dose modification or discontinuation

Q: What about the safety profile ([2]; human, in vivo) of the same compound?
A: manageable safety profile

Q: What about the “severity and reversibility of the majority of treatment-related adverse events” value ([2]; human, in vivo) of the same compound?
A: <Grade 2 and were reversible with dose modifications

Q: And the “toxicities commonly associated with VEGFR inhibition (hypertension, hypothyroidism, proteinuria, neurotoxicity)” value ([2]; human, in vivo)?
A: rarely observed
